In patent US10294202B2, “Pyrrolidinones as herbicides” (FMC Corporation, priority 2013, dated 2019):

Experiments:
[1] = system: barnyardgrass; test: Test A pre-/postemergence herbicide test; type: in vivo, Echinochloa crus-galli
Procedure, shortened: (§1)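 Visual 0–100 ratings (100 = complete control) made about 10 days after treatment, greenhouse-held plants compared with untreated controls. Treatments: postemergence sprays on one- to two-leaf plants (2–10 cm tall) and preemergence directed soil sprays after planting in loam–sand, chemicals formulated in non-phytotoxic solvent containing surfactant.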

[2] = system: blackgrass; test: Test A postemergence herbicide test; type: in vivo, Alopecurus myosuroides
Procedure, shortened: (§2)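 Potted in loam soil/sand blend; postemergence application at 1–2 leaf stage (2–10 cm). Greenhouse ~10 d. Visual injury vs untreated, 0–100 scale; 100 = complete control.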

[3] = system: galium; test: Test A postemergence herbicide test; type: in vivo, Galium aparine
Procedure, shortened: as §2

[4] = system: barnyardgrass; test: Test B flooded paddy test; type: in vivo, Echinochloa crus-galli; conditions: 500 g ai/ha, Flood; scale of 0 to 100 where 0 is no effect and 100 is complete control
Procedure, shortened: (§3)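 First, plants reach the 2-leaf stage; next, pots are flooded to 3 cm and compound is delivered into the water; finally, after 13 to 15 greenhouse days at constant depth, injury is graded visually from 0 to 100 against controls.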

[5] = system: sedge, umbrella; test: Test B flooded paddy test; type: in vivo, Cyperus difformis; conditions: 500 g ai/ha, Flood; scale of 0 to 100 where 0 is no effect and 100 is complete control
Procedure, shortened: as §3

[6] = system: ducksalad; test: Test B flooded paddy test; type: in vivo, Heteranthera limosa; conditions: 500 g ai/ha, Flood; scale of 0 to 100 where 0 is no effect and 100 is complete control
Procedure, shortened: as §3

[7] = system: rice; test: Test B flooded paddy test; type: in vivo, Oryza sativa; conditions: 500 g ai/ha, Flood; scale of 0 to 100 where 0 is no effect and 100 is complete control
Procedure, shortened: as §3

[8] = system: kochia; test: Test A pre-/postemergence herbicide test; type: in vivo, Kochia scoparia
Procedure, shortened: as §1

[9] = system: giant foxtail; test: Test A pre-/postemergence herbicide test; type: in vivo, Setaria faberii
Procedure, shortened: as §1

[10] = system: ryegrass, Italian; test: Test A pre-/postemergence herbicide test; type: in vivo, Lolium multiflorum
Procedure, shortened: as §1

[11] = system: ragweed; test: Test A pre-/postemergence herbicide test; type: in vivo, Ambrosia elatior
Procedure, shortened: as §1

[12] = system: wheat; test: Test A pre-/postemergence herbicide test; type: in vivo, Triticum aestivum; conditions: Postemergence
Procedure, shortened: as §1

[13] = system: corn; test: Test A pre-/postemergence herbicide test; type: in vivo, Zea mays; conditions: Postemergence
Procedure, shortened: as §1

[14] = system: pigweed; test: Test A pre-/postemergence herbicide test; type: in vivo, Amaranthus retroflexus
Procedure, shortened: as §1

[15] = 125 g ai/ha, visual rating, 0 to 100 scale, 0 no effect, 100 complete control, approximately 10 days, preemergence
[16] = Postemergence, 125 g ai/ha, 0 to 100 scale, 0 no effect, 100 complete control
[17] = preemergence, 500 g ai/ha, 0 to 100 scale (0 no effect, 100 complete control)
[18] = 125 g ai/ha, 0 to 100 scale, 0 no effect, 100 complete control
[19] = preemergence, 500 g ai/ha, 0 to 100 scale
[20] = Postemergence, 500 g ai/ha, 0 to 100 scale (0 no effect, 100 complete control)
[21] = 500 g ai/ha, 0 to 100 scale (0 no effect, 100 complete control)
[22] = Postemergence, 125 g ai/ha, visual rating on 0 to 100 scale (0 no effect, 100 complete control), approx. 10 days
[23] = Preemergence, 125 g ai/ha, 0 to 100 scale where 0 is no effect and 100 is complete control
[24] = preemergence, 500 g ai/ha, 0 to 100 scale, 0 is no effect and 100 is complete control
[25] = 125 g ai/ha, visual rating on 0 to 100 scale (0 no effect, 100 complete control), approx. 10 days

Cc1cc(C2CNC(=O)C2C(=O)Nc2ccc(F)c(F)c2F)ccc1F (racemic) [Compound 142]
80: Plant response rating, Barnyardgrass [1, 16]
100: Plant response rating, Ducksalad [6]
90: Plant response rating, Barnyardgrass [1, 15] | Barnyardgrass plant response rating (0 to 100 scale, 0 is no effect, 100 is complete control) ([1]; Postemergence, 500 g ai/ha) | Plant response rating, Barnyardgrass [1, 17] | Plant response rating, Foxtail, Giant [9, 19]
75: Plant response rating, Barnyardgrass [4]
20: Ryegrass, Italian plant response rating (0 to 100 scale, 0 is no effect, 100 is complete control) ([10]; Postemergence, 500 g ai/ha) | Wheat plant response rating (0 to 100 scale, 0 is no effect, 100 is complete control) ([12]; 500 g ai/ha)
70: Plant response rating, Foxtail, Giant [9, 15]
0: Plant response rating, Blackgrass [2, 18] | Plant response rating, Galium [3, 18] | Plant response rating, Sedge, Umbrella [5] | Plant response rating, Rice [7] | Plant response rating, Kochia [8, 15] | Plant response rating, Kochia [8, 16] | Kochia plant response rating (0 to 100 scale, 0 is no effect, 100 is complete control) ([8]; Postemergence, 500 g ai/ha) | Plant response rating, Kochia [8, 19] | Plant response rating, Foxtail, Giant [9, 16] | Plant response rating, Ryegrass, Italian [10, 15] | Plant response rating, Ryegrass, Italian [10, 16] | Plant response rating, Ryegrass, Italian [10, 19] | Plant response rating, Ragweed [11, 15] | Plant response rating, Ragweed [11, 16] | Ragweed plant response rating (0 to 100 scale, 0 is no effect, 100 is complete control) ([11]; Postemergence, 500 g ai/ha) | Plant response rating, Ragweed [11, 19] | Plant response rating, Wheat [12, 18] | Plant response rating, Corn [13, 18] | Corn plant response rating (0 to 100 scale, 0 is no effect, 100 is complete control) ([13]; 500 g ai/ha) | Plant response rating, Pigweed [14, 15] | Plant response rating, Pigweed [14, 16] | Pigweed plant response rating (0 to 100 scale, 0 is no effect, 100 is complete control) ([14]; Postemergence, 500 g ai/ha) | Plant response rating, Pigweed [14, 19]
30: Blackgrass plant response rating (0 to 100 scale, 0 is no effect, 100 is complete control) ([2]; 500 g ai/ha)
50: Foxtail, Giant plant response rating (0 to 100 scale, 0 is no effect, 100 is complete control) ([9]; Postemergence, 500 g ai/ha)
40: Galium plant response rating (0 to 100 scale, 0 is no effect, 100 is complete control) ([3]; 500 g ai/ha)

Cc1ccc(C2CNC(=O)C2C(=O)Nc2ccc(F)cc2F)cc1 (racemic) [Compound 150]
60: Galium plant response rating (0 to 100 scale, 0 is no effect, 100 is complete control) ([3]; 500 g ai/ha) | Plant response rating, Kochia [8, 15] | Kochia plant response rating (0 to 100 scale, 0 is no effect, 100 is complete control) ([8]; Postemergence, 500 g ai/ha)
0: Plant response rating, Blackgrass [2, 18] | Plant response rating, Sedge, Umbrella [5] | Plant response rating, Rice [7] | Plant response rating, Ryegrass, Italian [10, 15] | Plant response rating, Ryegrass, Italian [10, 16] | Ryegrass, Italian plant response rating (0 to 100 scale, 0 is no effect, 100 is complete control) ([10]; Postemergence, 500 g ai/ha) | Plant response rating, Ragweed [11, 15] | Plant response rating, Ragweed [11, 16] | Plant response rating, Wheat [12, 18] | Wheat plant response rating (0 to 100 scale, 0 is no effect, 100 is complete control) ([12]; 500 g ai/ha) | Plant response rating, Corn [13, 18] | Plant response rating, Pigweed [14, 15] | Plant response rating, Pigweed [14, 16] | Plant response rating, Pigweed [14, 19]
80: Plant response rating, Barnyardgrass [1, 15] | Plant response rating, Barnyardgrass [1, 16] | Barnyardgrass plant response rating (0 to 100 scale, 0 is no effect, 100 is complete control) ([1]; Postemergence, 500 g ai/ha) | Plant response rating, Barnyardgrass [4]
100: Plant response rating, Ducksalad [6]
30: Plant response rating, Kochia [8, 16] | Plant response rating, Foxtail, Giant [9, 16] | Corn plant response rating (0 to 100 scale, 0 is no effect, 100 is complete control) ([13]; 500 g ai/ha)
90: Plant response rating, Barnyardgrass [1, 17] | Plant response rating, Kochia [8, 19] | Plant response rating, Foxtail, Giant [9, 19]
70: Plant response rating, Foxtail, Giant [9, 15] | Foxtail, Giant plant response rating (0 to 100 scale, 0 is no effect, 100 is complete control) ([9]; Postemergence, 500 g ai/ha)
10: Blackgrass plant response rating (0 to 100 scale, 0 is no effect, 100 is complete control) ([2]; 500 g ai/ha)
20: Ragweed plant response rating (0 to 100 scale, 0 is no effect, 100 is complete control) ([11]; Postemergence, 500 g ai/ha) | Pigweed plant response rating (0 to 100 scale, 0 is no effect, 100 is complete control) ([14]; Postemergence, 500 g ai/ha)
50: Plant response rating, Galium [3, 18] | Plant response rating, Ryegrass, Italian [10, 19] | Plant response rating, Ragweed [11, 19]

O=C1NCC(c2cccc(OC(F)(F)C(F)F)c2)C1C(=O)Nc1cccc(F)c1F (racemic) [Compound 123]
60: Plant response rating, Blackgrass [2, 18] | Plant response rating, Galium [3, 18] | Plant response rating, Barnyardgrass [4] | Plant response rating, Kochia [8, 16] | Plant response rating, Ryegrass, Italian [10, 19] | Wheat plant response rating (0 to 100 scale, 0 is no effect, 100 is complete control) ([12]; 500 g ai/ha)
70: Plant response rating, Barnyardgrass [1, 16] | Plant response rating, Blackgrass [2, 21] | Galium plant response rating (0 to 100 scale, 0 is no effect, 100 is complete control) ([3]; 500 g ai/ha) | Kochia plant response rating (0 to 100 scale, 0 is no effect, 100 is complete control) ([8]; Postemergence, 500 g ai/ha) | Plant response rating, Ragweed [11, 15] | Ragweed plant response rating (0 to 100 scale, 0 is no effect, 100 is complete control) ([11]; Postemergence, 500 g ai/ha) | Plant response rating, Pigweed [14, 15]
80: Plant response rating, Barnyardgrass [1, 15] | Plant response rating, Barnyardgrass [1, 20] | Plant response rating, Kochia [8, 15] | Plant response rating, Foxtail, Giant [9, 16] | Plant response rating, Ragweed [11, 19] | Plant response rating, Corn [13, 21] | Plant response rating, Pigweed [14, 16] | Plant response rating, Pigweed [14, 19]
50: Ryegrass, Italian plant response rating (0 to 100 scale, 0 is no effect, 100 is complete control) ([10]; Postemergence, 500 g ai/ha) | Plant response rating, Ragweed [11, 16] | Plant response rating, Wheat [12, 18] | Plant response rating, Corn [13, 18]
90: Plant response rating, Barnyardgrass [1, 17] | Plant response rating, Kochia [8, 19] | Plant response rating, Foxtail, Giant [9, 15] | Foxtail, Giant plant response rating (0 to 100 scale, 0 is no effect, 100 is complete control) ([9]; Postemergence, 500 g ai/ha) | Plant response rating, Foxtail, Giant [9, 19] | Pigweed plant response rating (0 to 100 scale, 0 is no effect, 100 is complete control) ([14]; Postemergence, 500 g ai/ha)
0: Plant response rating, Sedge, Umbrella [5] | Plant response rating, Rice [7]
100: Plant response rating, Ducksalad [6]
40: Plant response rating, Ryegrass, Italian [10, 15] | Plant response rating, Ryegrass, Italian [10, 16]

O=C1NCC(c2ccc(Cl)o2)C1C(=O)Nc1cccc(F)c1F (stereo not drawn) [Compound 285]
0: Plant response rating, Barnyardgrass [1, 23] | Plant response rating, Barnyardgrass [1, 24] | Plant response rating, Blackgrass [2, 25] | Plant response rating, Blackgrass [2, 21] | Plant response rating, Galium [3, 25] | Plant response rating, Galium [3, 21] | Plant response rating, Sedge, Umbrella [5] | Plant response rating, Rice [7] | Plant response rating, Kochia [8, 22] | Plant response rating, Kochia [8, 20] | Plant response rating, Kochia [8, 23] | Plant response rating, Kochia [8, 24] | Plant response rating, Foxtail, Giant [9, 22] | Plant response rating, Foxtail, Giant [9, 20] | Plant response rating, Foxtail, Giant [9, 23] | Plant response rating, Ryegrass, Italian [10, 22] | Plant response rating, Ryegrass, Italian [10, 20] | Plant response rating, Ryegrass, Italian [10, 23] | Ryegrass, Italian plant response rating ([10]; Preemergence, 500 g ai/ha, visual rating on 0 to 100 scale (0 no effect, 100 complete control)) | Plant response rating, Ragweed [11, 22] | Plant response rating, Ragweed [11, 20] | Plant response rating, Ragweed [11, 23] | Plant response rating, Ragweed [11, 24] | Plant response rating, Wheat [12, 25] | Plant response rating, Wheat [12, 21] | Plant response rating, Corn [13, 25] | Plant response rating, Corn [13, 21] | Plant response rating, Pigweed [14, 22] | Plant response rating, Pigweed [14, 20] | Plant response rating, Pigweed [14, 23] | Plant response rating, Pigweed [14, 24]
20: Plant response rating, Barnyardgrass [1, 22] | Plant response rating, Barnyardgrass [4]
10: Plant response rating, Foxtail, Giant [9, 24]
70: Plant response rating, Barnyardgrass [1, 20]
100: Plant response rating, Ducksalad [6]
